Experimental data taken from article PMC5075766, “Antiplasmodial Activity Is an Ancient and Conserved Feature of Tick Defensins” (Frontiers in Microbiology, 2016).
Read-outs that look alike come from different tables or passages of the source. Positions of bridges follow the written chain, without caps; N, C: chain ends. Residues, ends and D or L forms follow the SMILES beside them.

Tested on: blood stages of P. falciparum
Assay type: cell-based, Plasmodium falciparum
Conditions: 48 h, starting parasitemia 0.5%, haematocrit 1%, SYBR Green I flow cytometry
Protocol: The growth inhibition assay was described in detail in [Fréville et al. (2013)]. Briefly, assays were carried out in 96-well plates with a starting parasitemia of 0.5% at a haematocrit of 1% using SYBR Green I ([Kelly et al., 2009]). The peptides were added to the culture at different concentrations ranging from 6.25 μM to 50 μM (final concentrations) in a volume of 250 μl of RPMI-AlbuMAX (0.5%) and incubated for an additional 48 h to allow all stages to complete one cycle. Cultures were stained for 30 min in the dark with SYBR Green I 1X (Invitrogen) diluted in 20 mM Tris pH8.8, 138 mM NaCl, and fixed with 1% paraformaldehyde. Fixed parasited red blood cells (RBC) were stored at 4°C in the dark until flow cytometry analysis. Parasite growth was assessed by flow cytometry on a BD FACSCantoII (BD Biosciences). Cell pairs were excluded from the analysis using a forward scatter (FSC)-width versus FSC-area dot plot. […] Fluorescence analysis (Green fluorescence) was performed using BD FACSDiva software (version 6.1.3, BD Biosciences) on a total of 200,000 acquired events. Fluorescence was observed as described by [Izumiyama et al. (2009)] on a two-parameter dot plot (Green fluoresecence-FSC). Fluorescence of non-infected RBC was adjusted to plot between […]. Results are expressed as the percentage of growth inhibition. […]

SMILES: CC[C@H](C)[C@H](NC(=O)[C@@H]1CSSC[C@@H]2NC(=O)[C@H](Cc3c[nH]cn3)NC(=O)[C@H](CCCNC(=N)N)NC(=O)[C@H](CC(=O)O)NC(=O)[C@@H]3CSSC[C@H](NC(=O)[C@H]([C@@H](C)O)NC(=O)[C@H](CC(C)C)NC(=O)[C@H](CCCCN)NC(=O)[C@H](Cc4c[nH]c5ccccc45)NC(=O)[C@H](CCCNC(=N)N)NC(=O)CNC(=O)CNC(=O)[C@H](CSSC[C@H](NC(=O)[C@H](Cc4ccccc4)NC(=O)[C@H](Cc4ccccc4)NC(=O)CN)C(=O)N4CCC[C@H]4C(=O)N[C@@H](Cc4ccc(O)cc4)C(=O)N[C@@H](CC(N)=O)C(=O)NCC(=O)N[C@@H](Cc4ccc(O)cc4)C(=O)N3)NC(=O)[C@H](Cc3ccc(O)cc3)NC(=O)CNC(=O)CNC(=O)[C@H](CCCNC(=N)N)NC(=O)[C@H](CCCNC(=N)N)NC(=O)[C@H](CCCNC(=N)N)NC(=O)[C@H](CC(C)C)NC(=O)[C@H](CCCCN)NC(=O)[C@H](CCCCN)NC(=O)[C@H](CCCNC(=N)N)NC2=O)C(=O)N[C@@H]([C@@H](C)CC)C(=O)N1)C(=O)N[C@@H](CCSC)C(=O)N[C@@H](CC(N)=O)C(=O)O [DefMT5] (H-GFFCPYNGYCDRHCRKKLRRRGGYCGGRWKLTCICIMN-OH; disulfide 4-25, 10-33, 14-35; N-terminus assumed)
- P. falciparum growth inhibition (6.25 μM peptide): 20%
- P. falciparum growth inhibition (50 μM peptide (highest concentration tested)): ~100%
